Reference: patent US20210198277A1, “AMINE-SUBSTITUTED ARYL OR HETEROARYL COMPOUNDS” (Epizyme, Inc., priority 2016, published 2021)

What follows are compounds tested against T1, EHMT2 (Homo sapiens, UniProt Q96KQ7) (assay: MDA-MB-231 H3K9me2 in-cell Western assay (EHMT2 ICW)). Conditions: Table III; MDA-MB-231 H3K9me2 in-cell Western; read-out: EHMT2 ICW (IC50 μM).
T1 construct: host or cells: MDA-MB-231
T1 sequence (Q96KQ7 1-1210): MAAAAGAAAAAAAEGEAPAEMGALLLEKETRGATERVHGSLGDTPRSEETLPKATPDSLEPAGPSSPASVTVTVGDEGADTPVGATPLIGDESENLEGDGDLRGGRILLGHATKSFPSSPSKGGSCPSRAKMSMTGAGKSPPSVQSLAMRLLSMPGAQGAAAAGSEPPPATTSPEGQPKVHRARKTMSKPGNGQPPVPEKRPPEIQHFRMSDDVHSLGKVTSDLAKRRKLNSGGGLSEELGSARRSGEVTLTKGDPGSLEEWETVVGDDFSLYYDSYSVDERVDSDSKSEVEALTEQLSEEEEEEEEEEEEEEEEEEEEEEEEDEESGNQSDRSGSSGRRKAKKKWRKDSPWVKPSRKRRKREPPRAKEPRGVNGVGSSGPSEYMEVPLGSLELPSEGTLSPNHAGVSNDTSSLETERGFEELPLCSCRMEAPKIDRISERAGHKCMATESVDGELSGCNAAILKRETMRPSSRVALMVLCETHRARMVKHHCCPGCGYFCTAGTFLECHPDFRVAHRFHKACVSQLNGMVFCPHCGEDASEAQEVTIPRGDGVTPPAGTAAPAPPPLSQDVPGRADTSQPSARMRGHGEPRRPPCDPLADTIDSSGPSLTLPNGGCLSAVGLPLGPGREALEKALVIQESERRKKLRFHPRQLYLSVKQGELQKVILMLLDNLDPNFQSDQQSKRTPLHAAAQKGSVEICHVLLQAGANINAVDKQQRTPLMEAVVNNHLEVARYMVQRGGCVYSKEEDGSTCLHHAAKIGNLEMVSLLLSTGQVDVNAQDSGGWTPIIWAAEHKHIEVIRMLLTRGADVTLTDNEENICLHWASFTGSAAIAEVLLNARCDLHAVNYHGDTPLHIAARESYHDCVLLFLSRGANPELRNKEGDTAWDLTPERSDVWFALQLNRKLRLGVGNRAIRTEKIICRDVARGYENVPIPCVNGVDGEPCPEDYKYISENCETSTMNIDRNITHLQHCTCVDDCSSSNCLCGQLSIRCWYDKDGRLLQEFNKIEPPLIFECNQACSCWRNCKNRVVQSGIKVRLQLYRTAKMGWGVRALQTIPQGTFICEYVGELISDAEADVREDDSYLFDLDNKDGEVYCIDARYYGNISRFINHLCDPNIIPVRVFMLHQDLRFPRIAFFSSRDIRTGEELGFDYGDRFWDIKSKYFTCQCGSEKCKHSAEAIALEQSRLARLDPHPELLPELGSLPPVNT
Format: cell-based
Procedure, shortened: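 Infrared read-out at 800 and 700 nm (H3K9me2 antibody vs DRAQ5 DNA stain) of fixed MDA-MB-231 cells after 48 h compound treatment at 37 °C. Well ratios were converted to percent inhibition, and IC50 was obtained by variable-slope nonlinear regression on triplicates.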

| IC50 | Compound |
| --- | --- |
| > 10 µM | COc1ccc(Nc2ccc3ncc(C)n3n2)cc1OCCCN1CCCC1 [Compound 347] |
| > 10 µM | COc1ccc(NCCCN2CCCC2)cc1Nc1nccc(NCC2CCOCC2)n1 [Compound 352] |
| > 10 µM | COc1ccc(Nc2ccc3ncn(C)c3n2)cc1OCCCN1CCCC1 [Compound 342] |
| 1 to 10 µM | COc1cnc(Nc2cc(C)nc3[nH]ccc23)cc1OCCCN1CCCC1 [Compound 336, N-(5-methoxy-4-(3-(pyrrolidin-1-yl)propoxy)pyridin-2-yl)-6-methyl-1H-pyrrolo[2,3-b]pyridin-4-amine] |
| 1 to 10 µM | COc1cnc(Nc2nc(C)nc3[nH]ccc23)cc1OCCCN1CCCC1 [Compound 326, N-(5-methoxy-4-(3-(pyrrolidin-1-yl)propoxy)pyridin-2-yl)-2-methyl-7H-pyrrolo[2,3-d]pyrimidin-4-amine] |
| 1 to 10 µM | COc1cnc(Nc2ccnc3[nH]ccc23)cc1OCCCN1CCCC1 [Compound 335, N-(5-methoxy-4-(3-(pyrrolidin-1-yl)propoxy)pyridine-2-yl)-1H-pyrrolo[2,3-b]pyridin-4-amine] |
| > 10 µM | COc1ccc(Nc2nccc(NCC3CCOCC3)n2)cc1OC1CCC2(CC1)CCN(C)C2 (stereo not shown) [Compound 259, N^2-(4-methoxy-3-((2-methyl-2-azaspiro[4.5]decan-8-yl)oxy)phenyl)-N^4-((tetrahydro-2H-pyran-4-yl)methyl)pyrimidine-2,4-diamine] |
| > 10 µM | COc1ccc(Nc2cccc3cn(C)nc23)cc1OCCCN1CCCC1 [Compound 346] |
| > 10 µM | COc1ccc(Nc2ccc3cnn(C)c3c2)cc1OCCCN1CCCC1 [Compound 341] |
| 1 to 10 µM | CNc1nc(Nc2ccc(OC)c(OCCCN3CCCC3)c2)nc2c1CCC2 [Compound 328, N^2-(4-methoxy-3-(3-(pyrrolidin-1-yl)propoxy)phenyl)-N^4-methyl-6,7-dihydro-5H-cyclopenta[d]pyrimidine-2,4-diamine] |
| > 10 µM | COc1ccc(Nc2nccc(NCC3CCOCC3)n2)cc1OC1CCC2(CC1)CN(C)C2 [Compound 260, N^2-(4-methoxy-3-((2-methyl-2-azaspiro[3.5]nonan-7-yl)oxy)phenyl)-N^4-((tetrahydro-2H-pyran-4-yl)methyl)pyrimidine-2,4-diamine] |
| 1 to 10 µM | COc1ccc(Nc2nccc(NCC3CCOCC3)n2)cc1NCCCN1CCCC1 [Compound 350] |
| 1 to 10 µM | CNc1ccnc(Nc2ccc(OC)c(OCCCN3CC(F)C3)c2)n1 [Compound 354] |
| > 10 µM | CNc1cc(Nc2cc(OCCCN3CCCC3)c(OC)cn2)ncn1 [Compound 324, N^4-(5-methoxy-4-(3-(pyrrolidin-1-yl)propoxy)pyridin-2-yl)-N^6-methylpyrimidine-4,6-diamine] |
| 1 to 10 µM | COc1ccc(Nc2nc(C)c(F)c(NC(C)C)n2)cc1OCCCN1CCCC1 [Compound 337] |
| > 10 µM | CNc1cc(Nc2cc(OCCCN3CCCC3)c(OC)cn2)cnn1 [Compound 323, N^5-(5-methoxy-4-(3-(pyrrolidin-1-yl)propoxy)pyridin-2-yl)-N^3-methylpyridazine-3,5-diamine] |
| > 10 µM | COc1ccc(Nc2ncc3ncn(C)c3n2)cc1OCCCN1CCCC1 [Compound 343] |
| 0.1 to 1 µM | CNc1cnnc(Nc2cc(OCCCN3CCCC3)c(OC)cn2)c1 [Compound 322, N^3-(5-methoxy-4-(3-(pyrrolidin-1-yl)propoxy)pyridin-2-yl)-N^5-methylpyridazine-3,5-diamine] |
| 0.1 to 1 µM | CNc1cc(C)nc(Nc2cnc(OC)c(OCCCN3CCCC3)c2)n1 [Compound 332, N^2-(6-methoxy-5-(3-(pyrrolidin-1-yl)propoxy)pyridin-3-yl)-N^4,6-dimethylpyrimidine-2,4-diamine] |
| > 10 µM | COc1ccc(Nc2ccnc(NCC3CCN(C(C)=O)CC3)n2)cc1OCCCN1CCCC1 [Compound 340] |
| 1 to 10 µM | COc1ccc(Nc2nccc(Nc3cccc(F)c3)n2)cc1OCCCN1CCCC1 [Compound 349] |
| > 10 µM | COc1ccc(OCCCN2CCCC2)cc1Nc1nccc(NCC2CCOCC2)n1 [Compound 351] |

| Compound | IC50 |
| --- | --- |
| CNc1cc(C)nc(Nc2ccc(OC)c(O[C@H]3C[C@H](CN(C)C)C3)c2)n1 [Compound 331, N^2-(3-((1r,3r)-3-((dimethylamino)methyl)cyclobutoxy)-4-methoxyphenyl)-N^4,6-dimethylpyrimidine-2,4-diamine] | > 10 µM |
| CNc1cc(C)nc(Nc2ccc(OC)c(O[C@H]3C[C@H](N(C)C)C3)c2)n1 (single isomer, unassigned) [Compound 329, N^2-(3-((1r,3r)-3-(dimethylamino)cyclobutoxy)-4-methoxyphenyl)-N^4,6-dimethylpyrimidine-2,4-diamine] | > 10 µM |

Same assay, conditions: Table VI; read-out: EHMT2 ICW IC50

| IC50 | Compound |
| --- | --- |
| 1 to 10 µM | CNc1cc(C2CCOCC2)c2cc(OC)c(OC[C@@H]3CCNC3)cc2n1 [Compound 802] |
| 1 to 10 µM | COc1cc2c(C3CCN(C(C)=O)CC3)cc(C)nc2cc1OCCCN1CCCC1 [Compound 834] |
| 1 to 10 µM | CNc1cc(C2CCOCC2)c2cc(OC)c(OC[C@@H]3CCN(C)C3)cc2n1 [Compound 803] |
| 0.1 to 1 µM | CNc1cc(C2CCCCC2)c2cc(OC)c(OCCCN3CCCC3)cc2n1 [Compound 816] |
| 0.1 to 1 µM | CNc1cc(CC2CCOCC2)c2cc(OC)c(OCCCN3CCCC3)cc2n1 [Compound 823] |
| 1 to 10 µM | COc1cc2c(C)cc(N3CCCCC3)nc2cc1OCCCN1CCCC1 [Compound 810] |
| 0.1 to 1 µM | CNc1cc(C)nc(Nc2ccc(OC)c(C#CC3CCCN3)c2)n1 (stereo not shown) [Compound 846] |
| > 10 µM | COc1ccc(Nc2nn(C)c3cnccc23)cc1OCCCN1CCCC1 [Compound 794] |
| 1 to 10 µM | COc1cc2c(C3CCOCC3)cc(N3CCCCC3)nc2cc1OCCCN1CCCC1 [Compound 824] |
| > 10 µM | CNC(=O)c1cc(C)nc(Nc2ccc(OC)c(OCCCN3CCCC3)c2)n1 [Compound 854] |
| 0.1 to 1 µM | CNc1cc(C)nc(Nc2cnc(OC)c(OC[C@@H]3CCN(C4CCC4)C3)c2)n1 [Compound 798] |
| 0.1 to 1 µM | CNc1cc(C)nc(Nc2ccc(OC)c(C#CC3CCNC3)c2)n1 (stereo not shown) [Compound 845] |
| 1 to 10 µM | COc1cc2c(C3CCOCC3)cc(N(C)C)nc2cc1OCCCN1CCCC1 [Compound 825] |
| > 10 µM | COc1ccc(Nc2cc(C)[nH]n2)cc1OCCCN1CCCC1 [Compound 796] |
| 0.1 to 1 µM | CNc1cc(C2CCN(CC(F)(F)F)CC2)c2cc(OC)c(OCCCN3CCCC3)cc2n1 [Compound 833] |
| 1 to 10 µM | COc1cc2c(C3CCN(C)CC3)cc(C#N)nc2cc1OCCCN1CCCC1 [Compound 790] |

| IC50 | Compound |
| --- | --- |
| 0.1 to 1 µM | COc1cc2c(C3CCN([C@@H]4CCOC4)CC3)cc(C)nc2cc1OCCCN1CCCC1 [Compound 863] |
| > 10 µM | CNc1cc(C)nc(Nc2ccc(OC)c(CN[C@@H]3CCNC3)c2)c1 [Compound 814] |
| 1 to 10 µM | CNc1cc(C)nc(Nc2ccc(OC)c(C#CC3CCN(C)C3)c2)n1 (stereo not shown) [Compound 847] |
| 1 to 10 µM | CCS(=O)(=O)N1CCC(c2cc(C)nc3cc(OCCCN4CCCC4)c(OC)cc23)CC1 [Compound 836] |
| 0.1 to 1 µM | COc1cc2c(C3CCN(CCC(F)(F)F)CC3)cc(C)nc2cc1OCCCN1CCCC1 [Compound 838] |
| 0.1 to 1 µM | CNc1cc(C)c2cc(OC)c(C#CCN3CCCC3)cc2n1 [Compound 859] |
| 0.1 to 1 µM | CNc1cc(C)nc(Nc2ccc(OC)c(C#CC3CCCN3C)c2)n1 (stereo not shown) [Compound 848] |
| 0.1 to 1 µM | COc1ccc(Nc2nc(C)cc(NC(C)C)n2)cc1OC[C@@H]1CCNC1 [Compound 800] |
| > 10 µM | CNc1cc(C)nc(Nc2cc(OCCCN3CCCC3)c3oncc3c2)n1 [Compound 793] |
| > 10 µM | COc1cc2c(C3CCOCC3)cc(=O)[nH]c2cc1OCCCN1CCCC1 [Compound 822] |
| 1 to 10 µM | CCN1CC(COc2cc(Nc3nc(C)cc4[nH]ccc34)ncc2OC)C1 [Compound 613] |
| 0.1 to 1 µM | COc1cc2c(C3CCN(C)CC3)cc(N3CCCCC3)nc2cc1OCCCN1CCCC1 [Compound 812] |
| > 10 µM | COc1cc(NC2CCOCC2)ncc1OCC1CCNC1 (stereo not shown) [Compound 806] |
| > 10 µM | COc1cnc(Nc2nn(C)c3cnccc23)cc1OCCCN1CCCC1 [Compound 795] |
| 0.1 to 1 µM | CNc1cc(C(C)C)c2cc(OC)c(OCCCN3CCCC3)cc2n1 [Compound 817] |
